# Marks after values point to notes of the source that are not given here.
# System: spontaneous motion activity of rats
# Assay: Depression of spontaneous motion activity (SMA) in "open field" test
# Format: in vivo
# Conditions: for Spontaneous activity (total values) b) after haloperidol administration: rats, i/p., open field 2 minutes, 10 minutes after administration, M±σ
# From the text: The presently-known clinical methods of haloperidol administration are: intravenous, intramuscular and oral. […] In theory, it is possible to improve the efficacy of the medicine, to reduce the single-administration dosage (through elimination of the effect of “first passage” through the liver) and to alleviate adverse somatic side effects.
# The Applicant used pharmacological combination of intraperitoneally (i/p.) administered haloperidol with nasally applied CO-generating composition.
# The experiments were performed on 24 puberty-age white rats (of no particular breed), body mass: 100-120 grams. Depression in SMA of the animals, as produced by i/p. drug administration, was compared with SMA depression produced by i/p. administration combined with nasal administration of CO-generating composition on the basis of a hem-oxygenase enzyme form. SMA of each animal was evaluated as total sum of values obtained within 2 minutes of “open field” test (in terms of the number of poles/supports, number of ring exercises and cleanings), prior to drug administration, and 10 minutes after drug administration.
# The experimental animals were subdivided into 4 groups:
# Group No. 1: controls (6 animals), no exposure;
# Group No. 2: haloperidol (7 animals), i/p., 0.2 mg/kg;
# Group No. 3: haloperidol (5 animals), i/p., 0.05 mg/kg;
# Group No. 4: haloperidol (6 animals), i/p., 0.05 mg/kg, in pharmacological combination with CO-generating composition.
# Haloperidol was administered by i/p. route within the physiological solution; CO-generating composition was administered nasally.
# [1] = preliminary studies, intraperitoneal, 0.2 mg/kg
smiles,measurement,setting,value
O=C(CCCN1CCC(O)(c2ccc(Cl)cc2)CC1)c1ccc(F)cc1 [haloperidol],Persistence of haloperidol-dependant depression in motive responses,[1],53.5 ± 7.7 min
same,Time to development of haloperidol-dependant depression in motive responses,[1],4.2 ± 1.8 min
same,Spontaneous activity (total values) b) after haloperidol administration,0.05 mg/kg,24 ± 3**^)
same,Spontaneous activity (total values) b) after haloperidol administration,0.2 mg/kg,3 ± 1*^)

# Source: patent US20080207600A1, “Pharmaceutical Combination for the Treatment of Cns Functional Disorders” (priority 2004, published 2008)
